One series concerns the target PHD1 (Homo sapiens (Human), UniProt Q96KS0). Nature of the series: HIF-PH assay (14CO2 capture), PHD1. The class given is biochemical. From the text: The selectivity profile for the compound of Formula I can be determined using, for example, any assay familiar and commonly accessible to those skilled in the art, e.g., the following HIF-PH assay.
Ketoglutaric acid α-[1-^14C]-sodium salt, alpha-ketoglutaric acid sodium salt, and HPLC purified peptide may be obtained from commercial sources, e.g., Perkin-Elmer (Wellesley MA), Sigma-Aldrich, and SynPep Corp. (Dublin CA), respectively. Peptides for use in the assay may be fragments of HIFα as described above or as disclosed in International Publication WO 2005/118836, incorporated by reference herein. HIF-PH, e.g., PHD1 (EGLN2) or PHD2 (EGLN1), can be expressed in, e.g., insect Hi5 cells, and partially purified, e.g., through a SP ion exchange chromatography column. Enzyme activity is determined by capturing ^14CO2 using an assay described by Kivirikko and Myllyla (1982, Methods Enzymol. 82:245-304). Assay reactions contain 50 mM HEPES (pH 7.4), 100 μM α-ketoglutaric acid sodium salt, 0.30 μCi/mL ketoglutaric acid α-[1-^14C]-sodium salt, 40 μM FeSO4, 1 mM ascorbate, 1541.8 units/mL Catalase, with or without 50 µM peptide substrate and various concentrations of compound of the invention. Reactions are initiated by addition of HIF-PH enzyme. IC50 (compound concentration for 50% inhibition of enzyme activity) of the compounds for each enzyme can be determined.
The peptide-dependent percent turnover is calculated by subtracting percent turnover in the absence of peptide from percent turnover in the presence of substrate peptide. Percent inhibition and IC50 are calculated using peptide-dependent percent turnover at given inhibitor concentrations. Calculation of IC50 values for each inhibitor is conducted using GraFit software (Erithacus Software Ltd., Surrey UK). IC50 of test compound for PHD1 and for PHD2 and/or PHD3 can be readily determined using the above method, and used to assess the selectivity of the compound for inhibition of PHD1.

Another series is described as follows: PK profile in rats. The class given is in vivo, rat.
In series [1] the test system is myocardial ischemia-induced heart failure (HFrEF). Kind of series: Rat model of ischemic HFrEF, Formula I and empagliflozin alone and in combination. The class given is in vivo. On the procedure: • Male Sprague Dawley rats • Ligation of left coronary artery for 30 minutes followed by reperfusion • Post-ligation recovery for 28 days • Cardiac function 28 days after ischemia-reperfusion using a Millar pressure-volume catheter inserted in the left ventricle via the carotid artery • Record pressure-volume loops over several cardiac cycles and derived cardiac function parameters A) Rat Model of Ischemic Heart Failure with Reduced Ejection Fraction (HFrEF)

Consider 1 molecule from patent US20250099455A1, “TREATMENT FOR CONGESTIVE HEART FAILURE” (FibroGen, Inc., priority 2022, published 2025).

PHD1, sequence (Q96KS0 whole entry, species assumed, the tested form may be a part): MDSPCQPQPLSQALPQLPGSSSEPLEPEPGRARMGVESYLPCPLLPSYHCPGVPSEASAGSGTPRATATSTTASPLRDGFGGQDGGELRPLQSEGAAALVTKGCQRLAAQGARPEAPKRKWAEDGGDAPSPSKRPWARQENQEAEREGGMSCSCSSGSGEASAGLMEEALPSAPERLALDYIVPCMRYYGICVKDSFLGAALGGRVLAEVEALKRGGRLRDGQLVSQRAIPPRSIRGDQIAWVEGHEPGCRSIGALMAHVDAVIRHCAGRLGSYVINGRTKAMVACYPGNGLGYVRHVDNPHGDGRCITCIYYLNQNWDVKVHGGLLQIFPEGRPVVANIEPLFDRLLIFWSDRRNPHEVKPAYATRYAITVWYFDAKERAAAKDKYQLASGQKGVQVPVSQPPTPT

As to `CC(C)(CC(=O)O)NC(=O)c1nc(C#N)c2cc(Oc3ccccc3)ccc2c1O` [Formula I, 3-[(1-cyano-4-hydroxy-7-phenoxy-isoquinoline-3-carbonyl)-amino]-3-methyl-butyric acid], on PHD1 (Table 1), the IC50 came to 0.91 µM. For the same molecule, on PHD1 (additional experiment, Table 1A), the IC50 turned out to be 0.7 µM. Besides, the PHD2/PHD1 on PHD1 (ratio IC50 PHD2/IC50 PHD1, additional experiment, Table 1A) came out at 24. For the same molecule, in “PK profile in rats” (in vivo, oral, rat, PK summary table), the Tmax is 5 to 6 h. In addition, the “Sex difference in PK” value in the series “PK profile in rats” (rat) is given as “No”. The “Accumulation (after multiple dosing)” value in the series “PK profile in rats” (rat, 4 wk GLP TK) is recorded as “Yes (4 wk”. Further, the Dose proportional entry in “PK profile in rats” (rat, 10-150 mg/kg) was “Yes”. In “PK profile in rats” (rat, in vivo, PK summary table), this molecule yielded a clearance of 0.367 to 0.667 mL/min/kg. In “PK profile in rats” (rat, in vivo, PK summary table, mostly), this molecule yielded a half-life of 5 to 6 h. In “PK profile in rats” (rat, in vivo, PK summary table, some longer), this molecule registered a half-life of 10 to 15 h. Besides, the bioavailability in the series “PK profile in rats” (rat, in vivo, po, rats, read-out: Oral bioavailability (Oral % F)) was approximately 78%. Moreover, in the series “PK profile in rats” (rat, in vivo, rats), the AUC(0-inf) was 1080 ± 328 µg·h/mL, the exposure AUC(0-t) stood at 1010 ± 268 µg·h/mL, the Cmax was found to be 91 ± 12 µg/mL and the Tmax was determined as 6.7 ± 1.2 h. Further, in the series “PK profile in rats” (rat, in vivo, rats), the clearance was 0.367 mL/min/kg and the half-life was 5 ± 1.3 h. Also, in “PK profile in rats” (rat, in vivo, rats, read-out: Vss), the Vd was 0.123 ± 0.056 L/kg. For the same molecule, the “Accumulation (after multiple dosing)” value in “PK profile in rats” (rat, once daily dosing 2 weeks) is given as “Unclear”. Also, in “PK profile in rats” (rats), the “CL relative to hepatic blood flow rate” value is “lower than hepatic blow flow rate” and the “Vss relative to plasma volume” value is recorded as “higher than plasma volume”. Besides, in series [1], the “improvement in ejection fraction” value is approximately 30% and the “improvement in end systolic volume” value is approximately 30%.
